Assay results from US20210196731A1, “COMPOSITIONS AND METHODS FOR TREATING OCULAR INFLAMMATION AND OCULAR SCARRING” (priority 2018, published 2021).
Entries after “also recorded” stand apart in the source; their conditions may differ.

How the values were obtained:
αSMA = assay: Cellular response to individual exogenous ASA-triggered lipid mediators (αSMA western blot); assay type: cell-based, human; conditions: 48 hrs
Method: Cells were lysed in lysis buffer (PhosphoSafe Extraction Reagent, Novagen) containing a protease inhibitor cocktail (P2714, Sigma-Aldrich). Crude protein lysate was quantified using a Pierce BCA protein assay kit (ThermoFisher, Mississauga, ON) and 10 ug from each sample was resolved using a Novex WedgeWell 4-20% tris-glycine gel (Invitrogen). Using an iBlot Gel Transfer Device (IB1001, Invitrogen), the separated protein was transferred to a nitrocellulose membrane (1B301001, iBlot Transfer Stack, Invitrogen) which was then blocked with 5% (w/v) bovine serum albumin (Sigma-Aldrich) in Tris buffered saline (TBST) for 1 hour at room temperature. The membranes were incubated overnight at 4° C. with primary antibody diluted in TBST containing 5% BSA (w/vol). Primary antibodies used were as follows: collagen 1 (ab138492, Abcam), αSMA (ab5694, Abcam), MMP9 (ab38898, Abcam), PPARγ (sc-7273, SantaCruz Biotechnology), SMAD2/3 (ab63672, Abcam), pSMAD2/3 (ab63399, Abcam) and GAPDH (sc-47724, Santa Cruz Biotechnology, Inc.). After incubation with primary antibodies, the blots were washed and hybridized with 1:3000 (v/v) dilutions of the appropriate goat anti-rabbit or anti-mouse IgG conjugated with horseradish peroxidase ([…], respectively, both from Bio-Rad Laboratories, Inc.). Visualization was accomplished by applying WesternBright Quantum chemiluminescent reagent (Advansta, Inc.), with GAPDH used as a protein loading control. Imaging and relative densiometric quantification was accomplished using a ChemiDoc MP System (Bio-Rad Laboratories, Inc.) connected to Image Lab (Version 6, Bio-Rad Laboratories, Inc.).
From the lipid mediator secretion assays, we see that exposure to ASA or APHS±a PLA2-a results in the generation of significant quantities of pro-resolving products 5-HETE, 11-HETE, 15-HETE and/or 17-OHDHA. The aim of this experiment was to assess the effects (both individually and in combination) of these lipid mediators at mitigating the induction of αSMA by aqueous humor growth factors. To this end, multiple primary HTCF cell lines were cultured in DMEM w/10% FBS in 6-well culture plates, incubated at 37 C and 5% CO2, until 80% confluent. The culture media was removed, wells washed with PBS, and then fresh DMEM w/0% FBS was added. After 24 hrs of serum starvation, one of 14 experimental treatments were applied for 48 hrs: 1) vehicle control (DMEM w/0% FBS), and 2) AHGFs (DMEM w/0% FBS and 2 ng/ml each of TGFB1, TGFB2, VEGF, CCN2), and 3-5) AHGFs/5-HETE (DMEM w/0% FBS, 2 ng/ml each of TGFB1, TGFB2, VEGF, CCN2, and 10, 100, or 1000 nM of 5-hydroxyeicosatetraenoic acid), and 6-8) AHGFs/11-HETE (DMEM w/0% FBS, 2 ng/ml each of TGFB1, TGFB2, VEGF, CCN2, and 10, 100, or 1000 nM of 11-hydroxyeicosatetraenoic acid), and 9-11) AHGFs/15-HETE (DMEM w/0% FBS, 2 ng/ml each of TGFB1, TGFB2, VEGF, CCN2, and 10, 100, or 1000 nM of 15-hydroxyeicosatetraenoic acid), and 12-14) AHGFs/17-OHDHA (DMEM w/0% FBS, 2 ng/ml each of TGFB1, TGFB2, VEGF, CCN2, and 10, 100, or 1000 nM of 17-hydroxy-docosahexaenoic acid). After 48 hrs exposure cellular protein lysate was collected and assessed by western blot with primary antibodies for αSMA and GAPDH, as described previously.

[1] = system: human Tenon's capsule fibroblasts (HTCFs); assay: Collagen Contraction Assay I (delayed release fibroblast populated collagen lattice); assay type: cell-based; conditions: gentamicin 1000 μg/ml and/or ASA 2000 μg/ml, 15 minutes twice daily, four day assay, vs vehicle control
Method: The delayed release fibroblast populated collagen lattice model was used to assess inhibition of gel contraction [58] by ASA and gentamicin. […] Cell free collagen lattices were prepared identically, however to isolate the effects of HTCFs alone on collagen, constructs without HTCFs were cast as a negative control. The cell-collagen solution was pipetted gently to ensure homogenous distribution of HTCFs while avoiding the production of air bubbles, then 500 ul were pipetted into each well of a 24-well tray. Collagen constructs were allowed to polymerize at 37 C for 45 minutes before adding low serum culture media containing DMEM, 2% Fetal Bovine Serum (FBS), 1% penicillin/streptomycin (P/S).
Tension was allowed to build up within the tethered matrix at 37 C and 5% CO2 for 72 hours before a sterile spatula was used to detach each collagen construct from the edges of the culture well. Plates were then immediately scanned on a flat bed laser scanner and then once per hour for the first 12 hours, then daily for a total of 4 days. The surface area of each collagen construct was measured using ImageJ (NIH) and standardized against the baseline surface area measurement to express changes in area as a percentage of original surface area.
Vehicle control treatment solution comprised of DMEM with 2% FBS and 1% penicillin/streptomycin. The gentamicin treatment solution contained DMEM with 2% FBS, 1% penicillin/streptomycin and 1000 μg/ml gentamicin (w/vol) (Sigma-Aldrich, CAT. NO: G1397). The ASA treatment solution contained DMEM with 2% FBS, 1% penicillin/streptomycin and 2000 μg/ml ASA (w/vol) (Sigma-Aldrich, CAT. NO: A5376). The gentamicin-ASA combination treatment solution (Gent+ASA) contained DMEM with 2% FBS, 1% penicillin/streptomycin, 1000 μg/ml gentamicin (w/vol.) and 2000 μg/ml ASA (w/vo).
Culture media was removed from collagen constructs twice daily and replaced with one of the four treatment solutions for a duration of 15 minutes. […]

HTCFs [2] = assay: Lipid Mediator Secretion Assay II (ASA or APHS with and without gentamicin, LC-MS/MS); assay type: cell-based, human; conditions: inflammatory cytokine induced HTCFs, gentamicin 250 or 500 μg/ml
Method: To this end, as before, multiple primary HTCF cell lines were cultured in DMEM w/10% FBS in 6-well culture plates, incubated at 37° C. and 5% CO2, until 90% confluent. The culture media was removed, wells washed with PBS, and then fresh DMEM w/0% FBS was added. After 24 hrs of serum starvation, fresh DMEM w/0% FBS was added, this time containing a physiologically relevant inflammation/wound healing induction mixture (1 ng/ml each of: IL-1b, TNFa, IFNγ, TGFb). After 12 hrs incubation, the induction media was removed, the wells were washed with PBS and fresh DMEM w/0% FBS was added containing one of ten experimental treatments for an incubation period of 48 hrs: 1) non-induced control (NIC: received DMEM w/0% FBS instead of the induction media), and 2) CytoM1+TGFB1 (DMEM w/0% FBS and 1 ng/ml each of: IL-1b, TNFa, IFNγ, TGFb), and 3) CytoM1/TGFB1/Gent250 (DMEM w/0% FBS, 1 ng/ml each of TGFB1, TGFB2, VEGF, CCN2 and 250 μg/ml gentamicin), and 4) CytoM1/TGFB1/Gent500 (DMEM w/0% FBS, 1 ng/ml each of TGFB1, TGFB2, VEGF, CCN2 and 500 μg/ml gentamicin), and 5) CytoM1/TGFB1/ASA500 (DMEM w/0% FBS, 1 ng/ml each of TGFB1, TGFB2, VEGF, CCN2, and 500 μg/ml ASA), and 6) CytoM1/TGFB1/ASA500/Gent250 (DMEM w/0% FBS, 1 ng/ml each of TGFB1, TGFB2, VEGF, CCN2, 500 μg/ml ASA and 250 μg/ml gentamicin), and 7) CytoM1/TGFB1/ASA1000 (DMEM w/0% FBS, 1 ng/ml each of TGFB1, TGFB2, VEGF, CCN2 and 1000 μg/ml ASA), and 8) CytoM1/TGFB1/ASA1000/Gent500 (DMEM w/0% FBS, 1 ng/ml each of TGFB1, TGFB2, VEGF, CCN2, 1000 μg/ml ASA, and 500 μg/ml gentamicin), and 9) CytoM1/TGFB1/APHS12 (DMEM w/0% FBS, 1 ng/ml each of TGFB1, TGFB2, VEGF, CCN2 and 12 μg/ml o-(acetoxyphenyl)hept-2-ynyl sulfide (APHS), and 10) CytoM1/TGFB1/APHS12/Gent250 (DMEM w/0% FBS, 1 ng/ml each of TGFB1, TGFB2, VEGF, CCN2, 12 μg/ml o-(acetoxyphenyl)hept-2-ynyl sulfide (APHS) and 250 μg/ml gentamicin). At 6, 12, 24 and 48 hrs after addition of the experimental treatments, 250 ul of supernatant was removed from each well, replaced with 250 ul of fresh DMEM w/0% FBS, and stored at −80° C. for subsequent LC-MS/MS analysis. After 48 hrs, the wells were washed with ice cold PBS three times and total cellular protein from the HTCF monolayer was collected for quantification and subsequent western blot analyses. The absolute quantity of protein within each culture well's HTCF monolayer was used as a means to standardize the relative secretion of lipid mediators by HTCFs into the culture well's supernatant.
This is a well-established method to determine the relative activity of cyclooxygenase, acetyl-COX2 and lipoxygenase biosynthetic pathways. In brief, the ratios of the integrated areas of the chromatographic peaks corresponding to each analyte and the integrated areas of the peaks corresponding to each analyte's internal standard (with known absolute quantity) are used to determine the relative quantity of each analyte in a given sample. After supernatant sample collection, 250 ul of methanol containing 100 μg of each deuterated internal standard was added. Samples were then vigorously vortexed and centrifuged at 10,000 g for 10 min before loading onto solid-phase extraction cartridges (Strata-X 33 um Polymeric Reversed Phase, 10 mg, Phenomenex 8B-S100-AAK), that were previously activated with 2 ml methanol and rinsed with 2 ml water. […] After washing with 5 ml water, extracts were eluted with 1 ml methanol. Solvent was then evaporated under vacuum in a SpeedVac centrifuge, and the extract was resuspended in 100 ul acetonitrile/water 60:40 (v/v). An aliquot of 20 ul was injected into the LC-MS/MS system for analysis. […] A Sciex Triple Quad 6500+ mass spectrometer with multiple reaction monitoring was used in negative ion mode. The chromatographic profile of the ion count for each m/z transition was monitored, and the area under the peaks (ion intensity vs elution time) was integrated using commercial software (MultiQuant, Sciex).

HTCFs [3] = assay: Collagen Contraction Assay II (dose dependence); assay type: cell-based, human; conditions: gentamicin alone, 100-1000 μg/ml, four days (FIG. 8A)
Method: (§1) The cell-collagen solution was pipetted gently to ensure homogenous distribution of HTCFs while avoiding the production of air bubbles, then 500 ul were pipetted into each well of a 24-well tray. Collagen constructs were allowed to polymerize at 37 C for 45 minutes before adding low serum culture media containing DMEM, 2% Fetal Bovine Serum (FBS), 1% penicillin/streptomycin (P/S).
Tension was allowed to build up within the tethered matrix at 37 C and 5% CO2 for 72 hours before a sterile spatula was used to detach each collagen construct from the edges of the culture well. Plates were then immediately scanned on a flat bed laser scanner once per 24 hours for a total of 4 days. The surface area of each collagen construct was measured using ImageJ (NIH) and standardized against the baseline surface area measurement to express changes in area as a percentage of original surface area.
The gentamicin concentrations assessed were delivered in a solution contained DMEM with 2% FBS, 1% penicillin/streptomycin and either 100, 250, 500, 750 or 100 μg/ml gentamicin (Sigma-Aldrich, CAT. NO: G1397). The ASA concentrations assessed were delivered in a solution of DMEM with 2% FBS, 1% penicillin/streptomycin and either 500, 1000 or 1500 μg/ml ASA (Sigma-Aldrich, CAT. NO: A5376). […]

HTCFs [4] = assay: Collagen Contraction Assay IV (AHGF induced, ASA and gentamicin vs mitomycin C); assay type: cell-based, human; conditions: ASA 1500 μg/ml and/or gentamicin 750 μg/ml; comparator mitomycin C 0.2 mg/ml for 4 minutes
Method: as §1
Tension was allowed to build up within the tethered matrix at 37 C and 5% CO2 for 72 hours before a sterile spatula was used to detach each collagen construct from the edges of the culture well. Plates were then immediately scanned on a flat bed laser scanner and then periodically for a total of 4 days. The surface area of each collagen construct was measured using ImageJ (NIH) and standardized against the baseline surface area measurement to express changes in area as a percentage of original surface area.
In this modification of the assay, AHGFs are added to all culture media the collagen constructs are exposed to—from casting of the collagen constructs to the conclusion of contraction. The experimental treatment solutions—all also containing AHGFs—were added 30 minutes prior to detaching the collagen constructs from the culture wells and remained until experimental conclusion. […] DMEM w/2% FBS was added for the remainder of the experiment).

Molecule: CC/C=C\CC(O)/C=C/C=C\C/C=C\C/C=C\C/C=C\CCC(=O)O (stereo not shown) [17-OHDHA, 17-hydroxy-docosahexaenoic acid]
- AHGF-induced expression of αSMA (αSMA; lipid mediator at 100 nM): significantly reduced
- AHGF-induced expression of αSMA (αSMA; lipid mediator at 1000 nM): significantly reduced

Molecule: CCCCC/C=C\C=C\C(O)C/C=C\C/C=C\CCCC(=O)O (stereo not shown) [11-HETE, 11-hydroxyeicosatetraenoic acid]
- AHGF-induced αSMA expression (αSMA; lipid mediator at 10, 100, or 1000 nM): did not significantly affect AHGF-induced αSMA expression

Molecule: CCCCC/C=C\C/C=C\C/C=C\C=C\[C@@H](O)CCCC(=O)O [5-HETE, 5-hydroxyeicosatetraenoic acid]
- AHGF-induced expression of αSMA (αSMA; lipid mediator at 100 nM): significantly reduced
- AHGF-induced expression of αSMA (αSMA; lipid mediator at 1000 nM): significantly reduced

Molecule: CCCCC[C@H](O)/C=C/C=C\C/C=C\C/C=C\CCCC(=O)O [15-HETE, 15-hydroxyeicosatetraenoic acid]
- AHGF-induced expression of αSMA (αSMA; lipid mediator at 100 nM): significantly reduced

Molecule: gentamicin
- HTCF mediated collagen contraction [1]: did not affect collagen contraction until the second day of the four day assay
- secretion of PUFA precursors: AA, EPA and DHA (HTCFs [2]): significantly increase the secretion of PUFA precursors
- HTCF-mediated collagen contraction (HTCFs [3]): no significant treatment effects found; also recorded: no significant effect on HTCF-mediated collagen contraction
- AHGF induced, HTCF-mediated collagen contraction (HTCFs [4]): no statistically significant effect on collagen contraction
